Tests used:
[1] = target: T1, Alpha-1A adrenergic receptor (Homo sapiens, UniProt P35348); format: functional, cell-based
T1 sequence (P35348 whole entry): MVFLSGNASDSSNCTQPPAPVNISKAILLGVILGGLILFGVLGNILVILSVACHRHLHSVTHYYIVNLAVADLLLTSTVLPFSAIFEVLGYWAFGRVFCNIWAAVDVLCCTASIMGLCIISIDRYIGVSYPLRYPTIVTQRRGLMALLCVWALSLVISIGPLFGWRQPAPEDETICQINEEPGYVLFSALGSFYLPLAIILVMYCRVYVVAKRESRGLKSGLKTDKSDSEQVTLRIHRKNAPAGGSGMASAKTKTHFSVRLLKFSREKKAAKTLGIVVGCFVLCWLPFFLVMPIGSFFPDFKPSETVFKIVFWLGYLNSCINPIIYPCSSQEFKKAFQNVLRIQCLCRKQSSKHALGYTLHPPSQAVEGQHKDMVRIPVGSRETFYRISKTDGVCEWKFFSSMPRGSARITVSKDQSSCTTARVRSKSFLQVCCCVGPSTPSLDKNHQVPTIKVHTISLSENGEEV

[2] = target: T1, Alpha-1A adrenergic receptor; format: functional, cell-based; remark: listed apart in the source
[3] = target: T2, Muscarinic acetylcholine receptor M2 (Homo sapiens, UniProt P08172)
T2 sequence (P08172 whole entry): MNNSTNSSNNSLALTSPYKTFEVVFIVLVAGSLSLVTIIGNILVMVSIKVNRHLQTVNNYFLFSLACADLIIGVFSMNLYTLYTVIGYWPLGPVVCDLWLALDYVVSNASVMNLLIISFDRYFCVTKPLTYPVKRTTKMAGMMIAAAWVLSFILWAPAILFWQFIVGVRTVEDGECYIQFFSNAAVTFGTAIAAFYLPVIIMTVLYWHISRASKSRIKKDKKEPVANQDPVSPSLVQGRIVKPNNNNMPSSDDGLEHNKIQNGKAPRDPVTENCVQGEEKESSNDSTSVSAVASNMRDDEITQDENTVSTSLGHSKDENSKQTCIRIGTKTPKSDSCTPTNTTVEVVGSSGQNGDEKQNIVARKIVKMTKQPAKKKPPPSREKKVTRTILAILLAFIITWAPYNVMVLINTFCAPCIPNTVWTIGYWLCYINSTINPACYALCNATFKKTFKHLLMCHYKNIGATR

Estrogen receptor = target: T3, Estrogen receptor (Homo sapiens, UniProt P03372)
T3 sequence (P03372 whole entry): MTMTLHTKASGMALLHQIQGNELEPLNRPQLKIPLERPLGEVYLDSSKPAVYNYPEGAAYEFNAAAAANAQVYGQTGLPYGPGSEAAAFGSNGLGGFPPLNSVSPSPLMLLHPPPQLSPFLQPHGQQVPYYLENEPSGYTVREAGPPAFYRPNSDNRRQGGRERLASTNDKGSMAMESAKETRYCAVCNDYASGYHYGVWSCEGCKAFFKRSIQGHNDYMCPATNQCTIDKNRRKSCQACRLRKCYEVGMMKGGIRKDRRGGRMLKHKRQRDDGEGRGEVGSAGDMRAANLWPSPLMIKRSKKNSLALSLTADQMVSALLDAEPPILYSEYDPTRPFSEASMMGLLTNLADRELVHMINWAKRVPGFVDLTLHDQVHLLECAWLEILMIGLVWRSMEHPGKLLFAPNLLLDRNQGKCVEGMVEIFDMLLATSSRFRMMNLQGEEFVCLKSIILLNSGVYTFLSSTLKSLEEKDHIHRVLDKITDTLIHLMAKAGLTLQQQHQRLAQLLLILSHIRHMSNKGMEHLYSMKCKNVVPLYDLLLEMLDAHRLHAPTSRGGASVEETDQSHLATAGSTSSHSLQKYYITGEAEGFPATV

[4] = target: 5-hydroxytryptamine receptor 2B (Homo sapiens, UniProt P41595); format: functional, cell-based
Sequence of 5-hydroxytryptamine receptor 2B (P41595 whole entry): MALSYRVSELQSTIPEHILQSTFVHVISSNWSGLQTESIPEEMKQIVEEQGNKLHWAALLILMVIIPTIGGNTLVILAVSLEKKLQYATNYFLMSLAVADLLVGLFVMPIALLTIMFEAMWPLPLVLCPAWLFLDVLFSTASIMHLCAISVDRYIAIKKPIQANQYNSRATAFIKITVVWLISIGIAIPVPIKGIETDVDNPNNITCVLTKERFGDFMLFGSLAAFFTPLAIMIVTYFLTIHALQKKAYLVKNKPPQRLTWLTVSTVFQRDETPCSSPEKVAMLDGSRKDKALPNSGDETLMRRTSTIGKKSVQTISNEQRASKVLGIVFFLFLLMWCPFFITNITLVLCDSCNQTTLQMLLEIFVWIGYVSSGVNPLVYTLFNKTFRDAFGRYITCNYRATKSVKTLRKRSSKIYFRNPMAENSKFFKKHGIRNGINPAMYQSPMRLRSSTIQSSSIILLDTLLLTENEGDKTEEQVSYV

[5] = target: Vascular endothelial growth factor receptor 2 (Homo sapiens, UniProt P35968); format: functional
Sequence of Vascular endothelial growth factor receptor 2 (P35968 whole entry): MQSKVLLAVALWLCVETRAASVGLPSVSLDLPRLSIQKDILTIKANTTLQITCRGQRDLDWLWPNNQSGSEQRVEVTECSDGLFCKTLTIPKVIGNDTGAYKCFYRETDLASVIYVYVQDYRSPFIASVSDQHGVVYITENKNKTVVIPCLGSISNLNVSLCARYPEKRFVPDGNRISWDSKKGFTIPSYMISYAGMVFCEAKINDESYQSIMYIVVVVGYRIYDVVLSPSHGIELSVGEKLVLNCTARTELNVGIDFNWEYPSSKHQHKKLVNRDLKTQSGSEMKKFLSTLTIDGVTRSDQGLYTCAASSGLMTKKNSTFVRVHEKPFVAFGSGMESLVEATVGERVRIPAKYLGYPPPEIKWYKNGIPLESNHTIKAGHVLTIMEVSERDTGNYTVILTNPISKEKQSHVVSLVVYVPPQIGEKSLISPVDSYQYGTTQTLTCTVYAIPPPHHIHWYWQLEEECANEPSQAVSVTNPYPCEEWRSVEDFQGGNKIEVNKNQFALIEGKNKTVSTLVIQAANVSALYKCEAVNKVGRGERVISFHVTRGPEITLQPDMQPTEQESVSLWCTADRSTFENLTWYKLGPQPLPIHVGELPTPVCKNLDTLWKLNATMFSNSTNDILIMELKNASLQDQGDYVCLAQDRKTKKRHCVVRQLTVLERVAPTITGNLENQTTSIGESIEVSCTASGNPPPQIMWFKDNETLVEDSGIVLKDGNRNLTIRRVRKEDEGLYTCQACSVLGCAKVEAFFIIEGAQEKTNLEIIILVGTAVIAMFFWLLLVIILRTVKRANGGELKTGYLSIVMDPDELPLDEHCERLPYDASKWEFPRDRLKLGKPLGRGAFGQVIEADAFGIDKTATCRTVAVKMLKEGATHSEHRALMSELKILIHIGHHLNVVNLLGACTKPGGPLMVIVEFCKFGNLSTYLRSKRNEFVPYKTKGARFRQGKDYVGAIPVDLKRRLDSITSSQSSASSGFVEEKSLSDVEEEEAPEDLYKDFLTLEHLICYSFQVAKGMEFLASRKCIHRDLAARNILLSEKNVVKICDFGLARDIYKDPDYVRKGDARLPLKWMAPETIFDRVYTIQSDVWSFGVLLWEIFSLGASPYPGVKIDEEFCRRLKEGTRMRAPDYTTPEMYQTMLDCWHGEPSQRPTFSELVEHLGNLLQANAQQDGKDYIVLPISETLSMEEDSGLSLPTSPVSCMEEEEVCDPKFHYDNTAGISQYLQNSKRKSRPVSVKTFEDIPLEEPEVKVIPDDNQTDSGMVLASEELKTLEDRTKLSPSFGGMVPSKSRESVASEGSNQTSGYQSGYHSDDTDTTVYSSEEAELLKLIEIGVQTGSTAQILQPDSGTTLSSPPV

Thromboxane A2 receptor = target: T4, Thromboxane A2 receptor (Homo sapiens, UniProt P21731); format: functional, cell-based
T4 sequence (P21731 whole entry): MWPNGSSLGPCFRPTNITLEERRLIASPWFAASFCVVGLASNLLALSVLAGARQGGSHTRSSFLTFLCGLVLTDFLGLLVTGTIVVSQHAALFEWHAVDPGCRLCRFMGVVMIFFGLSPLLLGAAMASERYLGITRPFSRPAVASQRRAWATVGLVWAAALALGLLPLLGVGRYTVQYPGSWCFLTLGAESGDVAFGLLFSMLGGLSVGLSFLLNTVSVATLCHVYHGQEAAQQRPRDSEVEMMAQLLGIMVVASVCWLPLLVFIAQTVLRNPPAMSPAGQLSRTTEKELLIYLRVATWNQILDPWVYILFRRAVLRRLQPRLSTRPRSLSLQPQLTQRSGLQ

[6] = target: Sodium-dependent serotonin transporter (Homo sapiens, UniProt P31645)
Sequence of Sodium-dependent serotonin transporter (P31645 whole entry): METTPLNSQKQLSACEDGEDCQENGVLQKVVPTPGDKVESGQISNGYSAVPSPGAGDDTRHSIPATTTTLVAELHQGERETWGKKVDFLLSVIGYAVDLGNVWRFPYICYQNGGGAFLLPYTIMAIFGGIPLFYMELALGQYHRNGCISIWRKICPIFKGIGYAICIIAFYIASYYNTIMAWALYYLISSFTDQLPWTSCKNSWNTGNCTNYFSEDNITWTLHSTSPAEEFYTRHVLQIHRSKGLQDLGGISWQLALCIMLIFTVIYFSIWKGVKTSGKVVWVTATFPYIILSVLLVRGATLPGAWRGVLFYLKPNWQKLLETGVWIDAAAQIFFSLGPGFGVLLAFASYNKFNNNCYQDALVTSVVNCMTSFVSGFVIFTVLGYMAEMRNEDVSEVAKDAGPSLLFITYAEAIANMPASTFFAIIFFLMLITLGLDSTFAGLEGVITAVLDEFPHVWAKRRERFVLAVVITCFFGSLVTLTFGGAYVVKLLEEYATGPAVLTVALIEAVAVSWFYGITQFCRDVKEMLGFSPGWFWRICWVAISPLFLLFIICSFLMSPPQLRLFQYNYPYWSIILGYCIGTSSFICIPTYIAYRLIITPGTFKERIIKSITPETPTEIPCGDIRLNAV

Mu-type opioid receptor = Mu-type opioid receptor (Homo sapiens, UniProt P35372)
Sequence of Mu-type opioid receptor (P35372 whole entry): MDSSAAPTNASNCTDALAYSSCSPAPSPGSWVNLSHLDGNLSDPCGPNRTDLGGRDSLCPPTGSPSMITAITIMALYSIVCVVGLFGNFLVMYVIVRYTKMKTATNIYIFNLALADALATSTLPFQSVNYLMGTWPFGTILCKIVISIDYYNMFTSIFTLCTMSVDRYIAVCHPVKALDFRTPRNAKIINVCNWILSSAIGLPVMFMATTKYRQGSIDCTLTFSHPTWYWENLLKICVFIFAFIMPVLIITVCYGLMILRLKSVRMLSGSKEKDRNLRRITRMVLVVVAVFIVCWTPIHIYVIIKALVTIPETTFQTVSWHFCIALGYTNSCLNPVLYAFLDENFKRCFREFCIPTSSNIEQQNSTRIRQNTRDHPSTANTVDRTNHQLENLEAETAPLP

Glucocorticoid receptor = target: T5, Glucocorticoid receptor (Homo sapiens, UniProt P04150)
T5 sequence (P04150 whole entry): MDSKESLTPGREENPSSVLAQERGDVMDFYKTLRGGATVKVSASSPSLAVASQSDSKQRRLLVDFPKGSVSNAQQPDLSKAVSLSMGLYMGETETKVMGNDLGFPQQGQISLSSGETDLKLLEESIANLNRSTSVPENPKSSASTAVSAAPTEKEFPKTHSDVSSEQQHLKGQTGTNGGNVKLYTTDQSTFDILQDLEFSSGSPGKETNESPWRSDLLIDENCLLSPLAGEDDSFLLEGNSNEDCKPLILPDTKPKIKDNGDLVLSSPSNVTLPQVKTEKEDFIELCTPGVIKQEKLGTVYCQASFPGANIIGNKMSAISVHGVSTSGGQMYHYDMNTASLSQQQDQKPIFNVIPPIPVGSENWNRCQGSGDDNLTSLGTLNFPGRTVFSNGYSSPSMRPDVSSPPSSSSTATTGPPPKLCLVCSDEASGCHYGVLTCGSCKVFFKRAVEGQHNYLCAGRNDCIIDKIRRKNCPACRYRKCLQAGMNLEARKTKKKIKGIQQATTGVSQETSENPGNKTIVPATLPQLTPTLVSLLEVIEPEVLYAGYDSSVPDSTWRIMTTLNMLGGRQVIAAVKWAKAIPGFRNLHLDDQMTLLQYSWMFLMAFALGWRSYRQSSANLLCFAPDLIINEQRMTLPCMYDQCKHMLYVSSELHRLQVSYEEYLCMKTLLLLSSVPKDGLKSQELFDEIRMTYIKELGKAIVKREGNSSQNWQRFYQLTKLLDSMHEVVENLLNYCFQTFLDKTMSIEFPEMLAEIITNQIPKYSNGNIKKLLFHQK
Further: assay procedure not described here.

| SMILES | AC50 [1] | AC50 [2] | AC50 [3] | AC50 (Estrogen receptor) | AC50 [4] | AC50 [5] | AC50 (Thromboxane A2 receptor) | AC50 [6] | AC50 (Mu-type opioid receptor) | AC50 (Glucocorticoid receptor) |
| --- | --- | --- | --- | --- | --- | --- | --- | --- | --- | --- |
| O=C(O)c1cc(O)ccc1O [GENTISIC ACID] | > 30 µM | > 30 µM | > 30 µM | > 30 µM | > 30 µM | > 30 µM | > 30 µM |  |  |  |
| O=C(OCC(O)CO)c1ccccc1Nc1ccnc2cc(Cl)ccc12 (stereo not drawn) [GLAFENINE] | > 30 µM | 13.5 µM | 4.3 µM | > 30 µM | > 30 µM | 6.96 µM | > 30 µM | > 30 µM | > 30 µM |  |
| CCC1=C(C)CN(C(=O)NCCc2ccc(S(=O)(=O)NC(=O)N[C@H]3CC[C@H](C)CC3)cc2)C1=O [GLIMEPIRIDE] | > 30 µM | > 30 µM | > 30 µM | > 30 µM | > 30 µM | > 30 µM | > 30 µM |  |  |  |
| CC(C)Nc1ncccn1 [ISAXONINE] | > 30 µM | > 30 µM | > 30 µM | > 30 µM | > 30 µM | > 30 µM | > 30 µM |  |  |  |
| OCCN1C[C@H](O)[C@@H](O)[C@H](O)[C@H]1CO [MIGLITOL] | > 30 µM | > 30 µM | > 30 µM | > 30 µM | > 30 µM | > 30 µM | > 30 µM |  |  |  |
| CC(=O)N[C@@H]1[C@@H](O)[C@H](O)[C@@H](CO)O[C@H]1O [N-ACETYLGLUCOSAMINE] | > 30 µM | > 30 µM | > 30 µM | > 30 µM | > 30 µM | > 30 µM | > 30 µM |  |  |  |
| O=C(CCNNC(=O)c1ccncc1)NCc1ccccc1 [NIALAMIDE] | > 30 µM | > 30 µM | > 30 µM | > 30 µM | > 30 µM | > 30 µM | > 30 µM |  |  |  |
| CC[C@H]1[C@@H](O)[C@@H]2[C@H](CC[C@]3(C)[C@@H]([C@H](C)CCC(=O)O)CC[C@@H]23)[C@@]2(C)CC[C@@H](O)C[C@@H]12 [OBETICHOLIC ACID] | > 30 µM | > 30 µM | > 30 µM | > 30 µM | > 30 µM | > 30 µM | > 30 µM | > 30 µM |  | > 30 µM |
| CC[N+]1(C)[C@@H]2CC(OC(=O)[C@H](CO)c3ccccc3)C[C@H]1[C@@H]1O[C@@H]12 (stereo partly drawn) [OXITROPIUM] | > 30 µM | > 30 µM | 0.003 µM | > 30 µM | > 30 µM | > 30 µM | > 30 µM |  |  |  |
| CC(C)(C)NC[C@H](O)COc1ccccc1C1CCCC1 [PENBUTOLOL] | > 30 µM | 2.54 µM | > 30 µM | > 30 µM | > 30 µM | > 30 µM | > 30 µM |  |  |  |
| CN(C)S(=O)(=O)c1ccc2c(c1)N(CCCN1CCC(CCO)CC1)c1ccccc1S2 [PIPOTIAZINE] | > 30 µM | 0.0032 µM | 1.72 µM | > 30 µM | > 30 µM | > 30 µM | > 30 µM |  |  |  |
| CO[C@H]1C[C@@H]2CC[C@@H](C)[C@@](O)(O2)C(=O)C(=O)N2CCCC[C@H]2C(=O)O[C@H]([C@H](C)C[C@@H]2CC[C@@H](O)[C@H](OC)C2)CC(=O)[C@H](C)/C=C(\C)[C@@H](O)[C@@H](OC)C(=O)[C@H](C)C[C@H](C)/C=C/C=C/C=C/1C [SIROLIMUS] | > 30 µM | > 30 µM | > 30 µM | > 30 µM | > 30 µM | > 30 µM | > 30 µM |  | > 10 µM |  |
| Cc1cn([C@H]2C[C@H](N=[N+]=[N-])[C@@H](CO)O2)c(=O)[nH]c1=O [ZIDOVUDINE] | > 30 µM | > 30 µM | > 30 µM | > 30 µM | > 30 µM | > 30 µM | > 30 µM |  | > 30 µM | > 30 µM |

— ChEMBL document CHEMBL5291721, “A preclinical secondary pharmacology resource illuminates target-adverse drug reaction associations of marketed drugs” (Nat Commun, 2023)
